Measurements as given in patent US12599608B2, “Methods for treating cardiac valve disease” (The Regents of the University of California, priority 2018, dated 2026).
Counter-ions that a name gives are not always drawn.

Columns and labels:
Format in all cases: cell-based, human
N1^+/− ECs [1] = test: Validation trials of screen candidates by targeted RNA-seq with the trained KNN algorithm; details: duplicate or triplicate; one or more replicates classified as WT
Experimental: (§1) Starting on day 15 of differentiation, WT ECs were exposed to 10 μM DMSO (dimethyl sulfoxide) (n=80) while isogenic N1^+/− ECs were exposed to either 10 μM DMSO (n=80) or one of the small molecules from the LOPAC (1280 molecules) (Sigma LO1280) or Sheng Ding (315 molecules) chemical libraries. DMSO or small molecules were renewed with EC media (ScienCell #1001) changes on alternating days until the cells were ultimately collected for analysis on day 21. ECs were imaged using the IN Cell Analyzer on day 21 to evaluate morphology and cell death; wells with extensive cell death were eliminated from final analyses. For validation experiments, promising small molecules identified from the initial screen were applied to N1^+/− ECs in duplicate or triplicate along with controls of DMSO-exposed WT and N1^+/− ECs (n=4 each) using the same process as the initial screen described above.
(§2) ECs were lysed and RNA was isolated using the Qiagen RNeasy 96-well purification kit. RNA was diluted so that it was between the 10 pg-1 ng range accepted by the Cellular Research Precise targeted RNA-seq (RNA sequencing) system. Targeted RNA-seq libraries were prepared as per the Cellular Research Precise protocol (Rev 03092015), which includes both molecule and sample barcoding. The selected 119 target genes (see Table 1) included 3 low-expressing housekeeping genes for normalization (CHMP2A, C1orf43, REEP5) and either predicted central regulatory nodes or peripheral genes positioned within varied regions of the N1 network to permit identification of small molecules that affected central nodes as well as those that may have a synergistic effect in combination due to regulating different aspects of the network. Briefly, RNA was added to the Precise Encoding Plate containing indexed dT primer, dNTPs, and Spike-in mRNA controls and incubated at 65° C. for 3 minutes followed by cooling on ice. A master-mix of RT enzyme, RNase inhibitor, and buffer was then added to the samples, and they were incubated at 42° C. for 30 minutes followed by 80° C. for 5 minutes. Each plate of samples was combined into a single 2 ml tube and purified with AMPureXP beads. N1 PCR master-mix was added and samples were incubated for 94° C. for 2 minutes, followed by 15 cycles of 94° C. for 30 seconds, 55° C. for 3 minutes, and 68° C. for 1 minute, followed by 68° C. for 7 minutes. Samples were purified with AMPureXP beads and N2 PCR master-mix was added. Samples were incubated with the same thermal cycler program as above for 12 cycles. These final libraries were then purified with AMPureXP beads and analyzed for quality and concentration by Agilent Bioanalyzer and Illumina Library Quantification Kit (KAPA Biosystems), respectively. Libraries were normalized to equivalent concentration and pooled for paired-end 100 bp sequencing on an Illumina HiSeq 2500 instrument.
Sequencing data was analyzed using Cellular Research Precise Analysis Pipeline on the SevenBridges platform, which included analyzing sequencing quality with FASTQC, trimming adapters and filtering reads, demultiplexing based on sample barcodes, aligning reads with Bowtie 2, and determining the number of unique molecular indices per gene. Network inference was based on mutual information of gene expression from all DMSO- and small molecule-exposed samples as described in Margolin et al., BMC Bioinformatics. 2006; 7 Suppl 1:S7. Network diagram was generated using NetworkX (Hagberg et al., Exploring Network Structure, Dynamics, and Function using NetworkX. SciPy. 2008) based on network connections inferred from the small molecule screen data as described above with colors based on whole transcriptome RNA-seq gene expression of isogenic N1^+/− compared to WT ECs.
Promising small molecules were identified using either K-nearest neighbor (KNN) or hierarchical clustering algorithms. […]

N1^+/− iPSC-derived ECs = test: Network-based small molecule screen by targeted RNA-seq of 119 genes (KNN and hierarchical clustering); details: for KNN classification of network gene expression of treated N1^+/− ECs: initial screen of 1595 small molecules, treatment day 15 to day 21 of differentiation, KNN k=2; for hierarchical clustering of transcriptional profile of treated N1-haploinsufficient ECs with WT ECs: initial screen, complete agglomeration method
Text: TALEN-engineered isogenic human iPSCs that were either WT (wild-type) or N1^+/− were derived and characterized as detailed in Theodoris et al., Cell. 2015; 160:1072-1086. Isogenic iPSCs (induced pluripotent stem cells) were differentiated into ECs as previously described (Theodoris et al., 2015; White et al., Stem Cells. 2012; 31:92-103). On day 13 of the differentiation process, ECs were greater than 90% double-positive for CD31 (BD #558068) and CD144 (#FAB9381P) by FACS (fluorescence-activated cell sorting) analysis (FIGS. 9G-H). Small molecule experiments (described below) were conducted at day 15 of differentiation.
as §1, §2
Sequencing data was analyzed using Cellular Research Precise Analysis Pipeline on the SevenBridges platform, which included analyzing sequencing quality with FASTQC, trimming adapters and filtering reads, demultiplexing based on sample barcodes, aligning reads with Bowtie 2, and determining the number of unique molecular indices per gene. Network inference was based on mutual information of gene expression from all DMSO- and small molecule-exposed samples as described in Margolin et al., BMC Bioinformatics. […]

N1^+/− ECs [2] = test: Whole transcriptome RNA-seq of N1^+/− ECs treated with network-correcting molecules
Experimental: ECs were lysed and RNA was isolated using the Qiagen RNeasy Micro purification kit. RNA-seq libraries were constructed using the Clontech SMRTer Stranded RNA-seq Library Prep Kit for Illumina per kit protocol. Libraries were analyzed by Agilent Bioanalyzer, normalized to equivalent concentration, pooled, gel purified, and sequenced 75 bp paired-end on an Illumina NextSeq instrument with 10% PhiX.
Sequencing quality was assessed with FASTQC (located on the web by placing “www.” in front of “bioinformatics.babraham.ac.uk/projects/fastqc/”). Reads were aligned to the hg19 (Homo sapiens assembly February 2009) transcriptome and genome using the Spliced Transcripts Alignment to a Reference (STAR) Aligner (Dobin et al., Bioinformatics. 2012; 29:15-21) and differential expression was analyzed using Cuffdiff (Trapnell et al., Nat Biotechnol. 2012; 31:46-53). HOPACH was used for clustering with the correlation metric (van der Laan and Pollard; located on the web by placing “www.” in front of “bioconductor.org/packages/devel/bioc/manuals/hopach/man/hopach.pdf”. GO analyses were completed using GO-Elite and ToppGene (Chen et al., Nucleic Acids Research. 2009; 37:W305-W311; Zambon et al., Bioinformatics. 2012; 28:2209-2210). Network diagrams were generated using NetworkX (Hagberg et al., SciPy. 2008) based on network connections inferred from mRNA-seq gene expression of isogenic N1^+/− compared to WT ECs with colors based on whole transcriptome RNA-seq gene expression of DMSO- vs small molecule-treated WT and N1^+/− ECs.

SMILES | KNN classification of treated N1^+/− ECs in validation trials (N1^+/− ECs [1]) | KNN classification of network gene expression of treated N1^+/− ECs (N1^+/− iPSC-derived ECs) | hierarchical clustering of transcriptional profile of treated N1-haploinsufficient ECs with WT ECs (N1^+/− iPSC-derived ECs) | other results
O[C@@](CCN1CCCCC1)(c1ccccc1)[C@@H]1CC2C=CC1C2 (mixture of isomers) [Biperiden_hydrochloride] | classified as WT |  |  | 
CCCCC[C@H](O)/C=C/[C@H]1[C@H](O)CC(=O)[C@@H]1CCCCCCC(=O)O [Alprostadil] |  | classified as WT |  | 
CC(/C=C/c1cccc(Oc2ccc(F)cc2)c1)N(O)C(N)=O (centres unmarked) [BWB70C] |  |  | cluster with WT ECs | 
NC(=O)c1cc(N2CC2)c([N+](=O)[O-])cc1[N+](=O)[O-] [CB_1954, 5-(1-aziridinyl)-2,4-dinitrobenzamide] | classified as WT | classified as WT |  | 
C=C1[C@@H](O)C2/C=C/C[C@H](C)CCCC(=O)/C=C/C(=O)O[C@]23CN[C@@H](Cc2ccccc2)[C@@H]3[C@@H]1C (some centres unmarked) [Cytochalasin] | classified as WT | classified as WT |  | effect on dysregulation of cell motility genes (N1^+/− ECs [2]; FIG. 2A): worsened the dysregulation; repression of genes aberrantly activated in N1-haploinsufficient ECs (N1^+/− ECs [2]; FIG. 2A): effective at downregulating arterial thrombosis and T cell signal genes; repressive effect on cadherin-11 mRNA expression (N1^+/− ECs [2]; FIG. 9A): strongest repressive effect
CC(C)C[C@H](NC(=O)OCC1c2ccccc2-c2ccccc21)C(=O)O [Fmoc-leu, Fmoc-Leucine] | classified as WT | classified as WT |  | 
Cc1ccnc(NS(=O)(=O)c2ccc(NC(=O)Nc3ccc(S(=O)(=O)Nc4nccc(C)n4)cc3)cc2)n1 [GSK837149A] | classified as WT | classified as WT |  | restoration of transcription of genes repressed in N1-haploinsufficient ECs (N1^+/− ECs [2]; FIG. 2A): restored transcription of a complementary group of genes involved in angiogenesis and cardiovascular development; restoration of the N1-dependent network as a whole (N1^+/− ECs [2]; FIGS. 2E, 3A): restored more complementary genes to XCT790
OC1(c2ccc(Cl)cc2)CCN(Cc2c[nH]c3ccccc23)CC1 [L-741,626] |  | classified as WT |  | 
C=CCN1CC[C@]23c4c5ccc(O)c4O[C@H]2/C(=N/NC(=O)c2ccccc2)CC[C@@]3(O)[C@H]1C5 [Naloxone benzoylhydrazone] |  | classified as WT |  | 
CCn1cc(C(=O)O)c(=O)c2cc(F)c(N3CCNCC3)cc21 [Norfloxacin] |  | classified as WT |  | 
NCCCCN [Putrescine dihydrochloride, Butane-1,4-diamine] | classified as WT |  |  | 
CC(C)(C(=O)NCC(F)(F)C(F)(F)F)C(=O)N[C@@H]1C(=O)Nc2ccccc2-c2ccccc21 [RO-4929097] | classified as WT | classified as WT |  | 
CC(C)(C)NCC(O)c1ccccc1Cl (centres unmarked) [Tulobuterol_hydrochloride, tulobuterol hydrochloride] |  | classified as WT |  | 
OCc1ccc(-c2nn(Cc3ccccc3)c3ccccc23)o1 [YC-1] |  | classified as WT |  | 
C=CCc1ccccc1OCC(O)CNC(C)C (centres unmarked) [alprenolol] |  |  | cluster with WT ECs | 
CCCCc1oc2ccccc2c1C(=O)c1cc(I)c(OCCN(CC)CC)c(I)c1 [amiodarone] |  |  | cluster with WT ECs | 
C[N+](C)(C)CCOC(N)=O [carbachol] |  |  | cluster with WT ECs | 
Cc1ccc(N(CC2=NCCN2)c2cccc(O)c2)cc1 [phentolamine mesylate] |  |  | cluster with WT ECs | 
CN1C(C(=O)Nc2ccccn2)=C(O)c2ccccc2S1(=O)=O [piroxicam] |  |  | cluster with WT ECs | 
